What all share (experiment): NCI tumour cell line growth inhibition, 48 h
Assay [1] has as its system A549.
In assay [2] the test system is BT-549.
Assay [3] deals with EKVX.
Assay [4] relates to HCC 2998.
The subject of assay [5] is HOP-62.
The test system of assay [6] is K562.
Assay [7] has as its system KM12.
Assay [8] relates to M14.
Assay [9] concerns MCF7.
Assay [10] relates to MOLT-4.
Assay [11] concerns NCI-H226.
In assay [12] the test system is OVCAR-3.
In assay [13] the test system is RPMI-8226.
Assay [14] has as its system RXF 393.
Assay [15] relates to SF-539.
Assay [16] has as its system SK-MEL-5.
Assay [17] relates to SK-OV-3.
Assay [18] concerns SNB-19.
Assay [19] relates to U-251.
In assay [20] the test system is NCI/ADR-RES.

The structures appear in SMILES notation.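 Interpolation was linear, between the two tested concentrations surrounding the appropriate level; five concentrations were tested over 48 hours in 96-well plates. The concentration for 50% growth inhibition is given as GI50.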 The source made the active and inactive calls. Cut-off read from the data, not from the text of the source: active = GI50 up to about 1.1 µM and inactive = higher. Where a SMILES comes first, the peptide text is derived from it. The star is where a group is joined. Cbz = O=C(OCc1ccccc1)*

For `CN(C)CCC(=O)N1C/C(=C/c2ccccc2)C(=O)/C(=C\c2ccccc2)C1`, the GI50 is 4.7 µM (inactive) in [1]; 0.883 µM (active) in assay [2]; 3.78 µM (inactive) in assay [3]; 1.06 µM (active) in assay [4]; 7.31 µM (inactive) in [5]; 0.182 µM (active) in assay [6]. For the same compound, the GI50 was 0.55 µM (active) in assay [7]; 1.91 µM (inactive) in assay [8]; 0.349 µM (active) in assay [9]; 0.313 µM (active) in assay [10]; 5.55 µM (inactive) in assay [11]; 2.59 µM (inactive) in [12]. Moreover, the GI50 is 0.134 µM (active) in [13]; 2.11 µM (inactive) in [14]; 3.91 µM (inactive) in [15]; 1.45 µM (inactive) in [16]; 6.25 µM (inactive) in [17]; 2.48 µM (inactive) in assay [18]. In addition, the GI50 in assay [19] is 0.662 µM (active).
`C[C@]12O[C@@]3(C)O[C@@]3(C)[C@]3(C)O[C@]3(C)[C@@]1(C)O2`: the GI50 in assay [1], in assay [2], in [3], in assay [5], in assay [6] and in assay [7] was > 100 µM (inactive) in each case. The GI50 in assay [8], in assay [9], in assay [10], in assay [11], in [20] and in [16] was > 100 µM (inactive) throughout. For the same compound, the GI50 in assay [17], in assay [18] and in assay [19] was > 100 µM (inactive) each time.
In the case of `Cc1cc(N(C)c2ccccc2)nc(N(C)c2ccccc2)n1`, the GI50 is 27.5 µM (inactive) in [1]; 36.1 µM (inactive) in assay [3]; 36.9 µM (inactive) in assay [4]; 31.2 µM (inactive) in [5]; 49.9 µM (inactive) in assay [6]; 18.1 µM (inactive) in assay [7]. For the same compound, the GI50 in assay [8] is 41.3 µM (inactive); in assay [9] it was 33.7 µM (inactive); in assay [10], 33.7 µM (inactive); in assay [11] it was 34.6 µM (inactive); in [20], 58.3 µM (inactive); in assay [12], 33 µM (inactive). The GI50 in assay [13] was 28.8 µM (inactive); in assay [14], 22 µM (inactive); in assay [15] it was 27.1 µM (inactive); in assay [16], 27.1 µM (inactive); in [17], > 100 µM (inactive); in assay [18] it was 88.1 µM (inactive). Moreover, the GI50 in assay [19] is 30.7 µM (inactive).
With `CC(=O)N1C(OCc2ccccc2)CCN1c1ccccc1` (configuration not stated), the GI50 in assay [1], in assay [2], in [5], in assay [6], in assay [8] and in assay [10] was > 10 µM (inactive) each time. Besides, the GI50 in [11], in assay [20], in [12], in assay [13], in assay [14] and in assay [15] was > 10 µM (inactive) throughout. The GI50 in assay [16], in assay [17] and in assay [18] was > 10 µM (inactive) each time.
For the compound `COc1ccc(N[S+]([O-])c2cccc(C)c2)cc1` (configuration not stated), the GI50 was 29.3 µM (inactive) in [1]; 12.2 µM (inactive) in [3]; 3.88 µM (inactive) in assay [4]; 64 µM (inactive) in assay [5]; 9.73 µM (inactive) in assay [6]; 17.5 µM (inactive) in assay [7]. For the same compound, the GI50 in assay [8] is > 100 µM (inactive); in assay [9], 75.5 µM (inactive); in [10], 35.3 µM (inactive); in assay [11], > 100 µM (inactive); in [20], 14 µM (inactive); in assay [12], > 100 µM (inactive). For the same compound, the GI50 in assay [13] was 26.2 µM (inactive); in assay [14], 54.5 µM (inactive); in [15] it was 27.8 µM (inactive); in assay [16], 25.6 µM (inactive); in [18], > 100 µM (inactive); in [19], 79.1 µM (inactive).
Take `CCOC(=O)/C(=C\n1c(=O)sc2ccccc21)C(=O)c1ccccc1`: the GI50 in assay [1] is > 100 µM (inactive); in [3], > 100 µM (inactive); in [4], > 100 µM (inactive); in assay [5], > 100 µM (inactive); in assay [6], 44.3 µM (inactive); in [7], > 100 µM (inactive). Also, the GI50 was > 100 µM (inactive) in assay [8]; > 100 µM (inactive) in [9]; > 100 µM (inactive) in [10]; > 100 µM (inactive) in [11]; > 100 µM (inactive) in [20]; 39.6 µM (inactive) in assay [13]. The GI50 in assay [14] was > 100 µM (inactive); in assay [15] it was > 100 µM (inactive); in assay [16], 54.2 µM (inactive); in [17] it was > 100 µM (inactive); in assay [19] it was > 100 µM (inactive).
As to `Cc1ccc(S(=O)(=O)N(CC(O)COc2ccccc2)c2c(F)cccc2F)cc1` (configuration not stated), the GI50 in [1] is 17.3 µM (inactive); in assay [3] it was 23.3 µM (inactive); in assay [4], 21.1 µM (inactive); in assay [5], 19.2 µM (inactive); in assay [6] it was 37.3 µM (inactive); in assay [7], 17.7 µM (inactive). The GI50 in assay [8] was 15.5 µM (inactive); in [9] it was 15.7 µM (inactive); in [10] it was 28.3 µM (inactive); in [11], 21.9 µM (inactive); in [20] it was 17.5 µM (inactive); in assay [12], 11.6 µM (inactive). Also, the GI50 was 14.4 µM (inactive) in assay [13]; 10.5 µM (inactive) in assay [14]; 16.9 µM (inactive) in [15]; 13.8 µM (inactive) in [16]; 18.5 µM (inactive) in assay [17]; 33.3 µM (inactive) in assay [18]. Further, in assay [19], the GI50 was 15.7 µM (inactive).
Take `CSc1nc(C)c(CCCl)c(Cl)n1`: the GI50 is > 100 µM (inactive) in assay [1]; 87.7 µM (inactive) in assay [2]; > 100 µM (inactive) in assay [3]; > 100 µM (inactive) in assay [4]; > 100 µM (inactive) in assay [5]; 31.8 µM (inactive) in [6]. Moreover, the GI50 in [8] is 32.4 µM (inactive); in assay [10], 27.4 µM (inactive); in assay [20], > 100 µM (inactive); in [12], > 100 µM (inactive); in [14] it was > 100 µM (inactive); in assay [15], > 100 µM (inactive). Also, the GI50 is 42.1 µM (inactive) in assay [16], > 100 µM (inactive) in assay [17], > 100 µM (inactive) in assay [18] and > 100 µM (inactive) in assay [19].
Take `OC(CCNCc1ccccc1)c1ccc2ccccc2c1` (configuration not stated): the GI50 in [1] is 19 µM (inactive); in [3], 34.8 µM (inactive); in assay [4], 36.2 µM (inactive); in [5] it was 19.3 µM (inactive); in assay [6], 21.6 µM (inactive); in assay [7], 17 µM (inactive). In addition, the GI50 in assay [8] is 36.1 µM (inactive); in assay [9], 24.9 µM (inactive); in assay [10] it was 31.1 µM (inactive); in assay [11] it was 23.8 µM (inactive); in [20] it was 24.7 µM (inactive); in assay [12], 13.3 µM (inactive). The GI50 was 23.8 µM (inactive) in assay [13]; 16.7 µM (inactive) in [14]; 16.9 µM (inactive) in assay [15]; 17.2 µM (inactive) in assay [16]; 23.7 µM (inactive) in assay [18]; 16.9 µM (inactive) in assay [19].
Turning to `O=c1oc2c/c(=C\c3ccccn3)c(=O)c3cccc1c3-2`, the GI50 was > 100 µM (inactive) in assay [3]; > 100 µM (inactive) in [4]; 15.4 µM (inactive) in [5]; > 100 µM (inactive) in assay [6]; 50.4 µM (inactive) in assay [7]; > 100 µM (inactive) in assay [8]. The GI50 was > 100 µM (inactive) in assay [9]; 49.3 µM (inactive) in assay [10]; 28.3 µM (inactive) in assay [11]; 52.7 µM (inactive) in assay [20]; 7.59 µM (inactive) in assay [12]; 28.6 µM (inactive) in [13]. Also, the GI50 was 5.56 µM (inactive) in assay [14]; 19.7 µM (inactive) in assay [15]; > 100 µM (inactive) in [16]; > 100 µM (inactive) in assay [17]; 68.2 µM (inactive) in assay [18].
In the case of `C/C=C1\CC(C(=O)OCC)CCCCCCCCCCC1=O` (configuration not stated), the GI50 in assay [1] is 51.3 µM (inactive); in assay [2], 82.8 µM (inactive); in assay [3], 41.5 µM (inactive); in [5], > 100 µM (inactive); in assay [7] it was 41.3 µM (inactive); in [8] it was > 100 µM (inactive). Further, the GI50 in [9] is 32.8 µM (inactive); in [10], 29 µM (inactive); in assay [11], 25.1 µM (inactive); in assay [20], 34.7 µM (inactive); in assay [14] it was 55.8 µM (inactive); in assay [15], > 100 µM (inactive). Besides, the GI50 in assay [16] is 29.2 µM (inactive); in [17] it was > 100 µM (inactive); in [18], 69.2 µM (inactive); in assay [19] it was 55.2 µM (inactive).
For the compound `CCOC(=O)CCC(NC(=O)C(CC(=O)OC)NC(=O)OCc1ccccc1)C(=O)NC(CC(=O)OC)C(=O)NC(CCC(=O)OCC)C(=O)NC(CC(=O)OC)C(=O)NC(CCC(=O)OCC)C(=O)NC(CC(=O)OCC)C(=O)OCC` (configuration not stated) (Cbz-D(OMe)E(OEt)D(OMe)E(OEt)D(OMe)E(OEt)D(OEt)-OEt; configuration not given here), the GI50 in [1], in [2], in [4], in assay [5], in assay [6] and in [9] was > 100 µM (inactive) in each case. For the same compound, the GI50 in assay [10], in [11], in [12], in [13], in assay [16] and in assay [18] was > 100 µM (inactive) each time. In addition, the GI50 in [19] is > 100 µM (inactive).

Values taken from ChEMBL document CHEMBL1201862, “PubChem BioAssay data set” (2004).
